Data: PubChem BioAssay AID1918957 (Molecular Pharmacology Branch, DTP, NCI, 2023)
Where “and” joins values, the source holds several entries; their conditions need not be identical. Identical values can stand only once.

System: NCI-H1876 complex spheroid viability
Experiment: Anticancer human tumor NCI-H1876 cell line growth inhibition [LSD1];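 also: spheroids exposed to compounds for one week before readout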;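 as to viability, T/C: 100% = DMSO vehicle-treated spheroids so lower means fewer viable cells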
Conditions: for viability, T/C: stronger effect = lower value
Summary of the method: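 Drug combinations with the LSD1 inhibitor iadademstat tested on tumor cells co-cultured as spheroids with endothelial cells and mesenchymal stem cells. Concentrations descended in half-log increments from clinical Cmax or 10 microM.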

[1] = curve of first compound, second compound 0.1 µM
[2] = curve of first compound, second compound 0.316 µM
[3] = curve of first compound, second compound 1 µM
[4] = curve of first compound, second compound 3.16 µM
[5] = curve of first compound, second compound 10 µM
[6] = second compound 0.1 µM, first compound 0.0316 µM
[7] = second compound 0.1 µM, first compound 0.1 µM
[8] = second compound 0.1 µM, first compound 0.316 µM
[9] = second compound 0.1 µM, first compound 1 µM
[10] = second compound 0.1 µM, first compound 3.16 µM
[11] = second compound 0.1 µM, first compound 10 µM
[12] = second compound 0.316 µM, first compound 0.0316 µM
[13] = second compound 0.316 µM, first compound 0.1 µM
[14] = second compound 0.316 µM, first compound 0.316 µM
[15] = second compound 0.316 µM, first compound 1 µM
[16] = second compound 0.316 µM, first compound 3.16 µM
[17] = second compound 0.316 µM, first compound 10 µM
[18] = second compound 1 µM, first compound 0.0316 µM
[19] = second compound 1 µM, first compound 0.1 µM
[20] = second compound 1 µM, first compound 0.316 µM
[21] = second compound 1 µM, first compound 1 µM
[22] = second compound 1 µM, first compound 3.16 µM
[23] = second compound 1 µM, first compound 10 µM
[24] = second compound 3.16 µM, first compound 0.0316 µM
[25] = second compound 3.16 µM, first compound 0.1 µM
[26] = second compound 3.16 µM, first compound 0.316 µM
[27] = second compound 3.16 µM, first compound 1 µM
[28] = second compound 3.16 µM, first compound 3.16 µM
[29] = second compound 3.16 µM, first compound 10 µM
[30] = second compound 10 µM, first compound 0.0316 µM
[31] = second compound 10 µM, first compound 0.1 µM
[32] = second compound 10 µM, first compound 0.316 µM
[33] = second compound 10 µM, first compound 1 µM
[34] = second compound 10 µM, first compound 3.16 µM
[35] = second compound 10 µM, first compound 10 µM
[36] = second compound 0.1 µM, first compound 0.00316 µM
[37] = second compound 0.1 µM, first compound 0.01 µM
[38] = second compound 0.316 µM, first compound 0.00316 µM
[39] = second compound 0.316 µM, first compound 0.01 µM
[40] = second compound 1 µM, first compound 0.00316 µM
[41] = second compound 1 µM, first compound 0.01 µM
[42] = second compound 3.16 µM, first compound 0.00316 µM
[43] = second compound 3.16 µM, first compound 0.01 µM
[44] = second compound 10 µM, first compound 0.00316 µM
[45] = second compound 10 µM, first compound 0.01 µM

| SMILES | IC50 [1] | IC50 [2] | IC50 [3] | IC50 [4] | IC50 [5] | viability, T/C [6] | viability, T/C [7] | viability, T/C [8] | viability, T/C [9] | viability, T/C [12] | viability, T/C [13] | viability, T/C [14] | viability, T/C [15] | viability, T/C [18] | viability, T/C [19] | viability, T/C [20] | viability, T/C [21] | viability, T/C [24] | viability, T/C [25] | viability, T/C [26] | also measured |
| --- | --- | --- | --- | --- | --- | --- | --- | --- | --- | --- | --- | --- | --- | --- | --- | --- | --- | --- | --- | --- | --- |
| O=C(c1cc(Cc2n[nH]c(=O)c3ccccc23)ccc1F)N1CCN(C(=O)C2CC2)CC1 + NC1CCC(NC2CC2c2ccccc2)CC1 | 6.62 µM | 6.16 µM | 6.13 µM | 5.37 µM | 5.05 µM | 90.7% | 99.4% | 89.4% | 94.8% | 99.2% | 93% | 89.4% | 87.2% | 90.2% | 93% | 91.5% | 79.7% | 90.7% | 95.4% | 86.7% | viability, T/C [10]: 76.2%; viability, T/C [11]: 35.4%; viability, T/C [16]: 69.5%; viability, T/C [17]: 35.5%; viability, T/C [22]: 70.5%; viability, T/C [23]: 35.8%; viability, T/C [27]: 86.7%; viability, T/C [28]: 64.5%; viability, T/C [29]: 32.7%; viability, T/C [30]: 95.7%; viability, T/C [31]: 90.6%; viability, T/C [32]: 85.9%; viability, T/C [33]: 79.8%; viability, T/C [34]: 64.6%; viability, T/C [35]: 29.9% |
| Nc1ncn(C2CC(O)C(CO)O2)c(=O)n1 (stereo not drawn) + NC1CCC(NC2CC2c2ccccc2)CC1 | > 1 µM | > 1 µM | > 1 µM | > 1 µM | > 1 µM | 99.7% | 97.5% | 98.7% | 96.2% | 99.8% | 98.5% | 92.5% | 86.6% | 100% | 97.9% | 93.5% | 92.2% | 102% | 97.6% | 92.6% | viability, T/C [36]: 104%; viability, T/C [37]: 109%; viability, T/C [38]: 103%; viability, T/C [39]: 98.8%; viability, T/C [40]: 102%; viability, T/C [41]: 109%; viability, T/C [42]: 98.6%; viability, T/C [43]: 104%; viability, T/C [27]: 95.8%; viability, T/C [44]: 99.3%; viability, T/C [45]: 100%; viability, T/C [30]: 96.7%; viability, T/C [31]: 106%; viability, T/C [32]: 92.8%; viability, T/C [33]: 97.1% |
| NC1CC1c1ccc(-c2cccc(O)c2)cc1 (stereo not drawn) |  |  |  |  |  |  |  |  |  |  |  |  |  |  |  |  |  |  |  |  | viability, T/C (compound 0.1 µM): 94%; IC50 (compound alone, run of 02/21/2022): > 10 µM |
| O=C(C=Cn1cnc(-c2cc(C(F)(F)F)cc(C(F)(F)F)c2)n1)NNc1cnccn1 + NC1CCC(NC2CC2c2ccccc2)CC1 | 0.0914 µM | 0.0819 µM | 0.0835 µM | 0.0751 µM | 0.0652 µM | 90.2% | 46.7% | 23.5% | 23.2% | 87.2% | 42.1% | 22.4% | 20.3% | 86.9% | 43.1% | 22.9% | 20.6% | 85.8% | 38.1% | 23.2% | viability, T/C [36]: 98.9%; viability, T/C [37]: 91.6%; viability, T/C [38]: 104%; viability, T/C [39]: 96.6%; viability, T/C [40]: 94.4%; viability, T/C [41]: 96%; viability, T/C [42]: 93.8%; viability, T/C [43]: 90.9%; viability, T/C [27]: 20.6%; viability, T/C [44]: 94.4%; viability, T/C [45]: 89.1%; viability, T/C [30]: 75.7%; viability, T/C [31]: 35.1%; viability, T/C [32]: 19.3%; viability, T/C [33]: 19.8% |
| Cn1ncnc1C1c2n[nH]c(=O)c3cc(F)cc(c23)NC1c1ccc(F)cc1 (stereo not drawn) |  |  |  |  |  |  |  |  |  |  |  |  |  |  |  |  |  |  |  |  | viability, T/C (compound 0.000316 µM): 100% and 104%; viability, T/C (compound 0.001 µM): 95% and 107%; viability, T/C (compound 0.00316 µM): 107% and 100%; viability, T/C (compound 0.01 µM): 107% and 100%; viability, T/C (compound 0.0316 µM): 94.9% and 93.5%; viability, T/C (compound 0.1 µM): 93.8% and 79.9%; IC50 (curve of compound): > 0.1 µM |
| CC(C)c1c(-c2ccccc2)nc2c(C#N)c[nH]n2c1=O |  |  |  |  |  |  |  |  |  |  |  |  |  |  |  |  |  |  |  |  | viability, T/C (compound 0.0316 µM): 93.8% and 104%; viability, T/C (compound 0.1 µM): 94.6% and 101%; viability, T/C (compound 0.316 µM): 92.2% and 103%; viability, T/C (compound 1 µM): 92% and 102%; viability, T/C (compound 3.16 µM): 89.2% and 94.4%; viability, T/C (compound 10 µM): 27.8% and 33.1%; IC50 (curve of compound): 6.59 µM and 7.28 µM |
| COc1ccc([C@@H](O)c2cc(-c3ncnc4cc(N5CCOCC5)ccc34)c(F)cc2Cl)nn1 + NC1CCC(NC2CC2c2ccccc2)CC1 | 3.07 µM | 3.49 µM | 3.78 µM | 3.48 µM | 3.13 µM | 109% | 97.4% | 109% | 91.2% | 112% | 105% | 95.8% | 85.3% | 113% | 107% | 99.7% | 84.7% | 113% | 113% | 94.3% | viability, T/C [10]: 49.2%; viability, T/C [11]: 23.4%; viability, T/C [16]: 50.7%; viability, T/C [17]: 21.3%; viability, T/C [22]: 53.9%; viability, T/C [23]: 24.5%; viability, T/C [27]: 76.4%; viability, T/C [28]: 54.2%; viability, T/C [29]: 21.9%; viability, T/C [30]: 101%; viability, T/C [31]: 110%; viability, T/C [32]: 94.2%; viability, T/C [33]: 70.9%; viability, T/C [34]: 53.3%; viability, T/C [35]: 26% |
| CC1COCCN1c1cc(C2(S(C)(=N)=O)CC2)nc(-c2ccnc3[nH]ccc23)n1 (stereo not drawn) + NC1CCC(NC2CC2c2ccccc2)CC1 | 7.48 µM | 6.67 µM | 6.72 µM | 6.22 µM | 5.47 µM | 115% | 116% | 115% | 124% | 119% | 129% | 117% | 105% | 118% | 116% | 114% | 113% | 116% | 130% | 126% | viability, T/C [10]: 91.6%; viability, T/C [11]: 35.9%; viability, T/C [16]: 86.2%; viability, T/C [17]: 30.7%; viability, T/C [22]: 86.6%; viability, T/C [23]: 30.7%; viability, T/C [27]: 110%; viability, T/C [28]: 80.6%; viability, T/C [29]: 28.8%; viability, T/C [30]: 114%; viability, T/C [31]: 116%; viability, T/C [32]: 113%; viability, T/C [33]: 101%; viability, T/C [34]: 73.7%; viability, T/C [35]: 24.2% |
| CC(C)CC(NC(=O)C(Cc1ccccc1)NC(=O)c1cnccn1)B(O)O (stereo not drawn) |  |  |  |  |  |  |  |  |  |  |  |  |  |  |  |  |  |  |  |  | viability, T/C (compound 0.000316 µM): 84% and 74.3%; viability, T/C (compound 0.001 µM): 15.6% and 0.43%; viability, T/C (compound 0.00316 µM): 8.34% and 0.27%; viability, T/C (compound 0.01 µM): 17.3% and 0.26%; viability, T/C (compound 0.0316 µM): 7.7% and 0.24%; viability, T/C (compound 0.1 µM): 13.9% and 0.31%; IC50 (curve of compound): 0.00056 µM and 0.000462 µM |
